Like-named read-outs stand apart in the source and are kept apart here.
How the values were obtained:
Pseudomonas solanacearum = format: in vivo, tomato plants; conditions: scale 0 (no control) to 4 (complete control)
[1] = tested on: Ascaris lumbricoides var. suum; test: anthelmintic activity in mice infected with Ascaris, medicated feed; format: in vivo; conditions: Example 13, 0.05 percent in diet; control 2.66
Text: The feeds were utilized as diets for separate groups of mice, five mice per group. About twelve hours after initiation of the feeding, the mice were infected with Ascaris lumbricoides var. summ ova. Another group of five mice was fed the non-medicated feed to serve as a control but was similarly infected at the same time with Ascaris lumbricoides var. suum. All groups were fed their respective feed and maintained under normal laboratory conditions for a period of eight days, at which time all mice were taken off feed. On the ninth day, all mice were sacrificed and the lungs examined to determine the presence, and if present, numbers, of lesions of Ascaris lumbricoides var. suum.
Another evaluation was conducted under the procedures reported in Example 11, except that the rates were varied. The results were as follows:
In a further evaluation, the monoammonium salts of A16886I and A16886II were separately evaluated for the control of Ascaris lumbricoides var. suum. The evaluations were conducted in accordance with the procedure reported in Example 11 at a concentration in the diet of 0.05 percent.

Xanthomonas vesicatoria = test: field trial, control of bacterial spot on tomato plants; format: in vivo
Procedure: (§1) A mixture of the monoammonium salt of A16886I and the monoammonium salt of A16886II was tested under field conditions for the control of Xanthomonas vesicatoria (bacterial spot) on mature bearing tomato plants. The mixture of the two salts was dispersed in water at a concentration of 100, 200, or 400 parts per million and applied to the plants at the rate of 75 gallons per acre. Application was made with a CO2 sprayer at 50 psi. Plants were sprayed twice, on successive days; after the second spray had dried, all plants were wounded by sand blasting and then within one minute the plants were inoculated with a bacterial inoculum of Xanthomonas vesicatoria. Three days later, a third spray application of the aqueous formulation of A16886 was made. Readings were made one week and two weeks after the last spray treatment. Controls consisted of groups of plants (1) sand blasted and inoculated; (2) sand blasted only; (3) untreated; and (4) treated with streptomycin (on the same three-day spraying schedule, at a concentration of 100, 200, or 400 parts per million of aqueous solution, using a rate of 75 gallons per acre), sand blasted, and inoculated. The results were as set forth in the following table, in which crop injury is reported on a scale of 0-10, with 0=no injury and 10=dead plants; and control of bacterial spot is reported on a percentage basis.

tomato plants = test: field trial, crop injury; format: in vivo; conditions: scale 0 (no injury) to 10 (dead plants)
Procedure: as §1

[2] = First Reading, 100 parts/million
[3] = First Reading, 200 parts/million
[4] = First Reading, 400 parts/million
[5] = Second Reading, 100 parts/million
[6] = Second Reading, 200 parts/million
[7] = Second Reading, 400 parts/million

With `NC(=O)OCC1=C(C(=O)O)N2C(=O)C(NC(=O)CCCC(N)C(=O)O)[C@H]2SC1` (stereo partly drawn) [7-(5-amino-5-carboxyvaleramido)-3-(carbamoyloxymethyl)-3-cephem-4-carboxylic acid] the “Disease Rating” value (Pseudomonas solanacearum; Example 7, 10 ppm.) was 1, the “Disease Rating” value (Pseudomonas solanacearum; Example 7, 100 ppm.) was 4 and the “Average Number of Lung Lesions Per Group” value [1] was 0.20.
`COC1(NC(=O)CCCC(N)C(=O)O)C(=O)N2C(C(=O)O)=C(COC(N)=O)CS[C@@H]21` (stereo partly drawn) [7-(5-amino-5-carboxyvaleramido)-3-(carbamoyloxymethyl)-7-methoxy-3-cephem-4-carboxylic acid] was tested, and the “Disease Rating” value (Pseudomonas solanacearum; Example 7, 10 ppm.) was 2, the “Disease Rating” value (Pseudomonas solanacearum; Example 7, 100 ppm.) was 4 and the rating (Pseudomonas solanacearum; Example 8, 100 ppm.) was 4. For the same compound, the rating (Pseudomonas solanacearum; Example 8, 200 ppm.) was 4, the rating (Pseudomonas solanacearum; Example 8, 400 ppm.) was 4 and the “Average Number of Lung Lesions Per Group” value [1] was 0.46.
In the case of `[H]/N=C(/N)N[C@H]1[C@H](O)[C@@H](O)[C@H](O[C@@H]2O[C@@H](C)[C@](O)(C=O)[C@H]2O[C@@H]2O[C@@H](CO)[C@H](O)[C@@H](O)[C@@H]2NC)[C@@H](N/C(N)=N\[H])[C@@H]1O` [Streptomycin], the “Percent Bacterial Spot Control” value (Xanthomonas vesicatoria; [2]) is reported as 83%, the “Percent Bacterial Spot Control” value (Xanthomonas vesicatoria; [3]) is reported as 81% and the “Percent Bacterial Spot Control” value (Xanthomonas vesicatoria; [4]) is reported as 83%. For the same compound, the “Percent Bacterial Spot Control” value (Xanthomonas vesicatoria; [5]) was 57%, the “Percent Bacterial Spot Control” value (Xanthomonas vesicatoria; [6]) was 37% and the “Percent Bacterial Spot Control” value (Xanthomonas vesicatoria; [7]) was 59%. For the same compound, the “Crop Injury Ratings” value (tomato plants; [2]) was 0, the “Crop Injury Ratings” value (tomato plants; [3]) was 0 and the “Crop Injury Ratings” value (tomato plants; [4]) was 0. For the same compound, the “Crop Injury Ratings” value (tomato plants; [5]) was 0, the “Crop Injury Ratings” value (tomato plants; [6]) was 0 and the “Crop Injury Ratings” value (tomato plants; [7]) was 0.
